The text below walks through data of patent EP4285905A1, “CABERGOLINE OR A PHARMACEUTICALLY ACCEPTABLE SALT OR SOLVATE THEREOF, FOR USE IN PREVENTION OR DELAY OF POST-PREGNANCY BREAST CANCER IN A FEMALE MAMMAL” (Consejo Superior de Investigaciones Cientificas, priority 2022, dated 2023).

The test system of one experiment is Brca1/P53-deficient mice. As to the kind of experiment: Indirect estimation of recombinant P53 cells by qPCR of the WT allele (longitudinal cohort). The format is in vivo. The settings on record: tumour-free mammary glands. As for the experimental part: In order to obtain a suspension enriched in mouse mammary epithelial cells, from which we can obtain both RNA and proteins and also maintain acceptable viability, the protocol for obtaining mouse mammary organoids was carried out. Once the mammary glands were removed after performing the necropsy of the mouse, they were mechanically disintegrated by cutting with two scalpels. Subsequently, they were incubated in a volume of 10 mL of supplemented medium (DMEM/F12 (50%/50%), 5% fetal bovine serum, 1% penicillin/streptomycin) plus 1.25 mL of collagenase, and 1 mL of trypsin. This enzymatic digestion was carried out for 30 minutes at 37 °C in orbital agitation at 100 revolutions per minute (rpm) (= 1.666 s^-1). […]
DNA was extracted from frozen organoids obtained from mammary glands at 30 and 60 days of involution, and from tumour-free mammary glands of mice that developed breast cancer over time. The quantity and quality of DNA were quantified using a spectrophotometer (Nanodrop). Subsequently, this DNA was used to determine the recombination frequency of the P53 gene in the breasts of the different groups by Quantitative Polymerase Chain Reaction (qPCR). […]
For each sample, qPCR reactions against P53 and Tfrc were performed in parallel and in triplicate. […] The qPCR reactions and the reading of the signal were performed in the Mastercycler epgradient S Realplex2 thermal cycler from Eppendor. […]

Experiment [1] deals with K14Cre; Brca1^F/F; P53^F/F. The experiment in a line: Tumour latency and tumour incidence in the Brca1/P53 deficient mouse model. The format is in vivo, mice. The source says:
The study model used was a genetically modified mouse, generated by the group led by Jos Jinkers from the Netherland Cancer Institute and generously donated to our group. It is a conditional double knock-out (KO) for Brca1 and P53 that expresses Cre-recombinase under the promoter of the cytokeratin-14 gene (K14) as a model named: K14Cre; Brca1^F/F; P53^F/F (hereinafter Brca1 or KO). These mice develop mammary tumours (cancers) with a penetrance of 100% (although it depends on whether they develop skin cancer first and must be sacrificed) and a median age of 7 months. They mimic human tumours with BRCA1 mutations, since they are basal-type and lose P53. Since Cre-recombinase under the promoter of the K14 gene is not only expressed in mammary cells, but also in other epithelial cells, these mice develop squamous cell carcinoma-like skin tumors. The cohort of mice used in this study has an FVB/N genetic background. […]

Consider `C=CCN1C[C@H](C(=O)N(CCCN(C)C)C(=O)NCC)C[C@@H]2c3cccc4[nH]cc(c34)C[C@H]21` [cabergoline, 1-[(6-allylergolin-8ß-yl)-carbonyl]-1-[3-(dimethylamino)propyl]-3-ethylurea], for which the “WT allele (proportion of WT cells) over time” value in the experiment with Brca1/P53-deficient mice is reported as “increase in WT cells was observed over time”. For the same compound, the tumour latency result in experiment [1] (single intraperitoneal dose 0.25 mg/Kg at weaning after second lactation, vs pregnancy and lactation group P = 0.019, non-lactation pregnancy group P < 0.0001, nulliparous P < 0.0001) is listed as “greater latency”. Further, the tumour incidence in experiment [1] (single intraperitoneal dose 0.25 mg/Kg at weaning, 10 mice out of 37 developed tumour, vs lactating multiparous mice P = 0.0062) amounted to 27.78%.
